Results on 3 compounds are retold here after ChEMBL document CHEMBL2384942, “Modulation of acridine mutagen ICR191 intercalation to DNA by methylxanthines--analysis with mathematical models” (Bioorg Med Chem, 2013).

Activity calls are given as the source filed them. The calls are words filed in the database; no cut-off is given here.

Series [1] relates to MDBK. The series is described as follows: Binding affinity to ICR191 in MDBK cells assessed as decrease in molar fraction of free mutagen at 1 to 12 mM by spectrophotometric analysis. The class given is cell-based.
The subject of series [2] is MDBK. The series is described as follows: Binding affinity to ICR191 in MDBK cells assessed as decrease in formation of mutagen-chromatin complex at 1 to 12 mM by spectrophotometric analysis. The class given is cell-based.
Series [3] relates to Salmonella typhimurium. The series is described as follows: Mutagenic activity in Salmonella typhimurium TA98 at 0.1 ug/plate after 4 hrs by Ames test. As to conditions: salmonella enterica subsp. enterica serovar typhimurium. The class given is toxicity, organism-based.
In series [4] the test system is Salmonella typhimurium. The series is described as follows: Mutagenic activity in Salmonella typhimurium TA98 at 2 mg/plate after 4 hrs by Ames test. The class given is toxicity, organism-based. The note with it: salmonella enterica subsp. enterica serovar typhimurium.
For series [5], the system named is Salmonella typhimurium. The series is described as follows: Protective effect in Salmonella typhimurium TA98 assessed as decrease in ICR191-induced mutagenic effect at 0.05 to 2000 ug/plate after 4 hrs by Ames test. The class given is functional, organism-based. As to conditions: Salmonella enterica subsp. enterica serovar Typhimurium.

As for `Cn1c(=O)c2c(ncn2C)n(C)c1=O`, the result in the series with MDBK [1] and with MDBK [2] was Active.
In the case of `COc1ccc2nc3cc(Cl)ccc3c(NCCCNCCCl)c2c1.Cl.Cl.Cl.Cl`, the Activity entry with Salmonella typhimurium [3] was “Non-toxic”.
For `CC(=O)CCCCn1c(=O)c2c(ncn2C)n(C)c1=O` [PENTOXIFYLLINE], the Activity result with Salmonella typhimurium [4] was “Non-toxic”. Besides, in the series with Salmonella typhimurium [5], the outcome was Active.
